From ChEMBL document CHEMBL6177998, “Rational Design of Dual Degraders by Incorporating Molecular Glue Structural Features into PROTAC Degraders” (J Med Chem, 2025)
Active and inactive are the calls of the source. The rule behind the calls is not given here.

Columns and labels:
[1] = target: T1, Protein cereblon/Androgen receptor (Homo sapiens, UniProt P10275+Q96SW2); assay: PROTAC activity at CRBN/AR in human 22Rv1 cells assessed as increase in androgen receptor polyubiquitination at 30 nM preincubated with compound for 12 hrs followed by MG132 addition and measured after 12 hrs by immunoprecipitation based Western blot analysis; assay type: cell-based; conditions: time 24.0 hrs
Target sequence in this assay (P10275 whole entry, looked up, canonical isoform): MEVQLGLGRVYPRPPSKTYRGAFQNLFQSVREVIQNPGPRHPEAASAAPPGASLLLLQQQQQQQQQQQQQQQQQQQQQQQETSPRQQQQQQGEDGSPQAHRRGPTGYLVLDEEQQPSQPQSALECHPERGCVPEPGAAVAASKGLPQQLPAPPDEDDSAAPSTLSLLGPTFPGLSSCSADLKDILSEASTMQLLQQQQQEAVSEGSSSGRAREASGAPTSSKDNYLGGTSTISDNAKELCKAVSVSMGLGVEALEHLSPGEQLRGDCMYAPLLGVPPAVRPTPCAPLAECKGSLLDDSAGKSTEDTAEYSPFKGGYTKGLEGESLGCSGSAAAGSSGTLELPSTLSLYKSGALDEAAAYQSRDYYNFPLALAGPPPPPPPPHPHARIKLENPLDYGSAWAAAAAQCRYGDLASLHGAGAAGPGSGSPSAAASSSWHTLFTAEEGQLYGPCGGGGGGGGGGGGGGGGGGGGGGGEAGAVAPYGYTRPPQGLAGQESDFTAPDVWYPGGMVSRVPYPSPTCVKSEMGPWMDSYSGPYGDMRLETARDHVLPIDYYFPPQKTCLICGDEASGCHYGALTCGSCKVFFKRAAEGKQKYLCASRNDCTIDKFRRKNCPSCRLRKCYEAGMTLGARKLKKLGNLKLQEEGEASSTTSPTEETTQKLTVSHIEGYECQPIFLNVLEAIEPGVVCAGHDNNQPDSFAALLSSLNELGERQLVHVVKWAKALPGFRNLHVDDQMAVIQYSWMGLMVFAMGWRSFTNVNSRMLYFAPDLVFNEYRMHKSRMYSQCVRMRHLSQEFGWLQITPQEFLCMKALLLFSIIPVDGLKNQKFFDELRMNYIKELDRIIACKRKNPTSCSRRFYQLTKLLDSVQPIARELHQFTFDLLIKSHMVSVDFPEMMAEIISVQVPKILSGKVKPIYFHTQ
Target sequence in this assay (Q96SW2 whole entry, looked up, canonical isoform): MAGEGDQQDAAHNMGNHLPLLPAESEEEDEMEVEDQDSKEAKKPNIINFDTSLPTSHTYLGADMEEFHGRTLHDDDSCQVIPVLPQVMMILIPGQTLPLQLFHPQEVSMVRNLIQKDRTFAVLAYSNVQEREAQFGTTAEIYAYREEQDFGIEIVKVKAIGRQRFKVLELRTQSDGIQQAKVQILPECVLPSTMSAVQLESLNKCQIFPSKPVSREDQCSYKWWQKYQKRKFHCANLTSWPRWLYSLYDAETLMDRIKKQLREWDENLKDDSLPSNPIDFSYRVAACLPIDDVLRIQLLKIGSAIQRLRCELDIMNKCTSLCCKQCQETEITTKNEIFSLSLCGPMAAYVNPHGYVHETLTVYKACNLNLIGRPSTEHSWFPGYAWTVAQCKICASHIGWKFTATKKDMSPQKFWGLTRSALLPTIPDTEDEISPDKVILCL

[2] = tested on: Protein cereblon/Androgen receptor (Homo sapiens), P10275+Q96SW2 [UNDEFINED MUTATION]; assay: PROTAC activity at CRBN/Androgen receptor splice variant 7 in human 22Rv1 cells assessed as induction of AR-V7 degradation at 20 nM incubated for 36 hrs by Western blot analysis (reference value: 0%); assay type: cell-based
[3] = target: T2, Protein cereblon/Eukaryotic peptide chain release factor GTP-binding subunit ERF3A (Homo sapiens, UniProt Q96SW2+P15170); assay: Molecular glue activity at CRBN/GSPT1 in human 22Rv1 cells assessed as induction of GSPT1 degradation at 0.01 uM incubated for 24 hrs by Western blot analysis relative to control; assay type: cell-based
[4] = target: T1, Protein cereblon/Androgen receptor; assay: PROTAC activity at CRBN/AR in human 22Rv1 cells assessed as decrease in FKBP5 mRNA level at 1 to 3 nM incubated for 24 hrs by qRT-PCR analysis; assay type: cell-based; conditions: dose 1-3 nM
Target sequence in this assay (P10275 whole entry, looked up, canonical isoform): as the sequence (P10275 whole entry, looked up, canonical isoform) above
Target sequence in this assay (Q96SW2 whole entry, looked up, canonical isoform): as the sequence (Q96SW2 whole entry, looked up, canonical isoform) above

[5] = tested on: Protein cereblon/Androgen receptor (Homo sapiens), P10275+Q96SW2 [UNDEFINED MUTATION]; assay: PROTAC activity at CRBN/Androgen receptor splice variant 7 in human 22Rv1 cells assessed as induction of AR-V7 degradation at 20 nM incubated for 24 hrs by Western blot analysis (reference value: 0%); assay type: cell-based
[6] = tested on: Protein cereblon/Androgen receptor (Homo sapiens), P10275+Q96SW2 [UNDEFINED MUTATION]; assay: (§1) PROTAC activity at CRBN/Androgen receptor splice variant 7 in human 22Rv1 cells assessed as induction of AR-V7 degradation incubated for 24 hrs by Western blot analysis; assay type: cell-based
[7] = target: T1, Protein cereblon/Androgen receptor; assay: as §1; assay type: cell-based
Target sequence in this assay (P10275 whole entry, looked up, change not shown, canonical isoform): as the sequence (P10275 whole entry, looked up, canonical isoform) above
Target sequence in this assay (Q96SW2 whole entry, looked up, change not shown, canonical isoform): as the sequence (Q96SW2 whole entry, looked up, canonical isoform) above

[8] = Oral bioavailability in male ICR mouse at 10 mg/kg by LC-MS/MS analysis; assay type: ADME, organism-based; conditions: in vivo
[9] = target: T2, Protein cereblon/Eukaryotic peptide chain release factor GTP-binding subunit ERF3A; assay: Molecular glue activity at CRBN/GSPT1 in human 22Rv1 cells assessed as induction of GSPT1 degradation at 20 nM incubated for 1 hrs by Western blot analysis (reference value: 0 %); assay type: cell-based
[10] = target: T2, Protein cereblon/Eukaryotic peptide chain release factor GTP-binding subunit ERF3A; assay: Molecular glue activity at CRBN/GSPT1 in human 22Rv1 cells assessed as induction of GSPT1 degradation at 20 nM incubated for 24 hrs by Western blot analysis (reference value: 0 %); assay type: cell-based
CWR22R [11] = assay: Upregulation of ribosome-related pathway gene expression in human 22Rv1 cells at 3 nM incubated for 24 hrs by GSEA analysis; assay type: functional, cell-based
[12] = target: T2, Protein cereblon/Eukaryotic peptide chain release factor GTP-binding subunit ERF3A; assay: Molecular glue activity at CRBN/GSPT1 in human 22Rv1 cells assessed as induction of GSPT1 degradation at 20 uM preincubated with EPI-002 for 4 hrs followed by compound addition and measured after 36 hrs by Western blot analysis; assay type: cell-based
[13] = target: T2, Protein cereblon/Eukaryotic peptide chain release factor GTP-binding subunit ERF3A; assay: Molecular glue activity at CRBN/GSPT1 in human VCaP cells assessed as induction of GSPT1 degradation at 20 nM measured after 6 hrs by Western blot analysis; assay type: cell-based
[14] = tested on: Protein cereblon/Androgen receptor (Homo sapiens), P10275+Q96SW2 [UNDEFINED MUTATION]; assay: PROTAC activity at CRBN/Androgen receptor splice variant 7 in human 22Rv1 cells assessed as induction of AR-V7 degradation at 50 nM preincubated with MG132 followed by compound addition and measured after 12 hrs by Western blot analysis; assay type: cell-based
CWR22R [15] = assay: Cell cycle arrest in human 22Rv1 cells assessed as accumulation of cells at G1 phase at 1 nM incubated for 24 hrs by flow cytometric analysis (reference value: 49.7 %); assay type: functional
22Rv1 = assay: Induction of AR degradation in human 22Rv1 cells transfected with CRBN siRNA at 30 nM incubated for 24 hrs by Western blot analysis; assay type: cell-based
LNCaP = assay: Antiproliferative activity against AR-dependent human LNCaP cells assessed as cell growth inhibition incubated for 72 hrs by Celltiter-lumi luminescent cell viability assay; assay type: functional, cell-based
[16] = tested on: Protein cereblon/Androgen receptor (Homo sapiens), P10275+Q96SW2 [UNDEFINED MUTATION]; assay: PROTAC activity at CRBN/Androgen receptor splice variant 7 in human 22Rv1 cells assessed as induction of AR-V7 degradation at […] preincubated with thalidomide followed by compound addition and measured after 12 hrs by Western blot analysis; assay type: cell-based
[17] = target: T1, Protein cereblon/Androgen receptor; assay: PROTAC activity at CRBN/AR in human LNCaP cells assessed as induction of AR degradation at 20 nM by Western blot analysis; assay type: cell-based; conditions: time 1-36 hrs
Target sequence in this assay (P10275 whole entry, looked up, canonical isoform): as the sequence (P10275 whole entry, looked up, canonical isoform) above
Target sequence in this assay (Q96SW2 whole entry, looked up, canonical isoform): as the sequence (Q96SW2 whole entry, looked up, canonical isoform) above

[18] = target: T1, Protein cereblon/Androgen receptor; assay: PROTAC activity at CRBN/AR in human VCaP cells assessed as induction of AR degradation by measuring maximal efficacy incubated for 24 hrs by Western blot analysis relative to control; assay type: cell-based
Target sequence in this assay (P10275 whole entry, looked up, canonical isoform): as the sequence (P10275 whole entry, looked up, canonical isoform) above
Target sequence in this assay (Q96SW2 whole entry, looked up, canonical isoform): as the sequence (Q96SW2 whole entry, looked up, canonical isoform) above

[19] = target: Protein cereblon/Zinc finger protein Helios (Homo sapiens) (UniProt Q96SW2+Q9UKS7); assay: Molecular glue activity at CRBN/IKZF2 in human 22Rv1 cells assessed as induction of IKZF2 degradation at 1 uM incubated for 6 hrs by Western blot analysis; assay type: cell-based
[20] = target: T1, Protein cereblon/Androgen receptor; assay: PROTAC activity at CRBN/AR in human 22Rv1 cells assessed as induction of AR degradation at 0.01 uM incubated for 24 hrs by Western blot analysis relative to control; assay type: cell-based
Target sequence in this assay (P10275 whole entry, looked up, canonical isoform): as the sequence (P10275 whole entry, looked up, canonical isoform) above
Target sequence in this assay (Q96SW2 whole entry, looked up, canonical isoform): as the sequence (Q96SW2 whole entry, looked up, canonical isoform) above

[21] = target: Cereblon/Ikaros (Homo sapiens) (UniProt Q96SW2+Q13422); assay: Molecular glue activity at CRBN/IKZF1 in human 22Rv1 cells assessed as induction of IKZF1 degradation at 1 uM incubated for 6 hrs by Western blot analysis; assay type: cell-based
[22] = tested on: Protein cereblon/Androgen receptor (Homo sapiens), P10275+Q96SW2 [UNDEFINED MUTATION]; assay: Induction of AR-V7 degradation in human 22Rv1 cells transfected with CRBN siRNA at 30 nM incubated for 24 hrs by Western blot analysis; assay type: cell-based
CWR22R [23] = assay: Cell cycle arrest in human 22Rv1 cells assessed as accumulation of cells at G1 phase at 3 nM incubated for 24 hrs by flow cytometric analysis (reference value: 49.7 %); assay type: functional
[24] = tested on: Protein cereblon/Androgen receptor (Homo sapiens), P10275+Q96SW2 [UNDEFINED MUTATION]; assay: PROTAC activity at CRBN/Androgen receptor splice variant 7 in human 22Rv1 cells assessed as induction of AR-V7 degradation at 20 nM incubated for 12 hrs by Western blot analysis (reference value: 0%); assay type: cell-based
[25] = AUC in male ICR mouse at 10 mg/kg, po by LC-MS/MS analysis; assay type: ADME, organism-based; conditions: in vivo
[26] = tested on: Protein cereblon/Androgen receptor (Homo sapiens), P10275+Q96SW2 [UNDEFINED MUTATION]; assay: PROTAC activity at CRBN/Androgen receptor splice variant 7 in human 22Rv1 cells assessed as induction of AR-V7 degradation at 20 nM incubated for 2 hrs by Western blot analysis (reference value: 0%); assay type: cell-based
[27] = target: T2, Protein cereblon/Eukaryotic peptide chain release factor GTP-binding subunit ERF3A; assay: Molecular glue activity at CRBN/GSPT1 in human 22Rv1 cells assessed as induction of GSPT1 degradation at 50 nM preincubated with MG132 followed by compound addition and measured after 12 hrs by Western blot analysis; assay type: cell-based
[28] = target: T1, Protein cereblon/Androgen receptor; assay: PROTAC activity at CRBN/AR in human 22Rv1 cells assessed as induction of AR degradation at 50 nM preincubated with MG132 followed by compound addition and measured after 12 hrs by Western blot analysis; assay type: cell-based
Target sequence in this assay (P10275 whole entry, looked up, canonical isoform): as the sequence (P10275 whole entry, looked up, canonical isoform) above
Target sequence in this assay (Q96SW2 whole entry, looked up, canonical isoform): as the sequence (Q96SW2 whole entry, looked up, canonical isoform) above

[29] = target: T1, Protein cereblon/Androgen receptor; assay: PROTAC activity at CRBN/AR in human 22Rv1 cells assessed as induction of AR degradation at 50 uM preincubated with thalidomide followed by compound addition and measured after 12 hrs by Western blot analysis; assay type: cell-based
[30] = target: T1, Protein cereblon/Androgen receptor; assay: PROTAC activity at CRBN/AR in human LNCaP cells assessed as decrease in FKBP5 mRNA level at 10 to 100 nM incubated for 24 hrs by qRT-PCR analysis; assay type: cell-based; conditions: dose 10-100 nM

Protein cereblon/Androgen receptor (Homo sapiens), P10275+Q96SW2 [UNDEFINED MUTATION], sequence (P10275 whole entry, looked up, change not shown, canonical isoform): as the sequence (P10275 whole entry, looked up, canonical isoform) above
Protein cereblon/Androgen receptor (Homo sapiens), P10275+Q96SW2 [UNDEFINED MUTATION], sequence (Q96SW2 whole entry, looked up, change not shown, canonical isoform): as the sequence (Q96SW2 whole entry, looked up, canonical isoform) above
T2 sequence (P15170 whole entry, looked up): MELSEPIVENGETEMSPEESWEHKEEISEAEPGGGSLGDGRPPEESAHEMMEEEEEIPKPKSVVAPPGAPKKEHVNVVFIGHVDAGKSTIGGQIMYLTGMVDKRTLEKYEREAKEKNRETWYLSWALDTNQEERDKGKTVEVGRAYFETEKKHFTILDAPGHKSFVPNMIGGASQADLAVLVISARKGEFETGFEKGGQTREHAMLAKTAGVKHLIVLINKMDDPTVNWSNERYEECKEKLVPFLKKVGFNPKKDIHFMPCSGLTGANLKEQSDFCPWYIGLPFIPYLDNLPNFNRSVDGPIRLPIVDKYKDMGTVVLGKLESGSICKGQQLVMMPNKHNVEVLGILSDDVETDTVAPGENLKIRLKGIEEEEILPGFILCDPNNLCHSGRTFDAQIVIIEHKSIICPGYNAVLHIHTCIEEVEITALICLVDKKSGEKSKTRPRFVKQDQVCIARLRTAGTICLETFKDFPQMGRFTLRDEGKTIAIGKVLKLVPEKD
T2 sequence (Q96SW2 whole entry, looked up): as the sequence (Q96SW2 whole entry, looked up, canonical isoform) above
Protein cereblon/Zinc finger protein Helios (Homo sapiens), sequence (Q96SW2 whole entry, looked up): as the sequence (Q96SW2 whole entry, looked up, canonical isoform) above
Protein cereblon/Zinc finger protein Helios (Homo sapiens), sequence (Q9UKS7 whole entry, looked up): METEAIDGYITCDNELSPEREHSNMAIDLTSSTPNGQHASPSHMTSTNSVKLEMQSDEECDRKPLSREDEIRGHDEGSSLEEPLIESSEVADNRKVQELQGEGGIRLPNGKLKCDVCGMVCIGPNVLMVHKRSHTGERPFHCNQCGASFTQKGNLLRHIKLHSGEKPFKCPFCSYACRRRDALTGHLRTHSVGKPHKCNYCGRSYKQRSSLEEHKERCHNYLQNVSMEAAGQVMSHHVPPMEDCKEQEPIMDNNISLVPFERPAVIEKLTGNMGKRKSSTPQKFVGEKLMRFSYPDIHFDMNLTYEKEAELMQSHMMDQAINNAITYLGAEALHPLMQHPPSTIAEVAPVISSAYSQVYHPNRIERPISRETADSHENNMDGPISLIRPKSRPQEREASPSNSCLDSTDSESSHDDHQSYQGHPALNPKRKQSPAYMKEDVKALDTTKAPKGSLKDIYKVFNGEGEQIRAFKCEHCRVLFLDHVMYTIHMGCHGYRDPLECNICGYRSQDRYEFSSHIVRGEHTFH

Question: Which results are given for `COc1ccc(C(C)(C)c2cc(Cl)c(OCC3CCN(C(=O)CCCCCNc4ccc5c(c4)C(=O)N(C4CCC(=O)NC4=O)C5=O)CC3)c(C#N)c2)cc1` (configuration not stated)?
Answer: Activity [1]: Active; Activity [2]: 98.3%; Activity [3]: 93.9%; Activity [4]: Active; Activity [5]: 95.5%; Activity [6]: Dose-dependent-effect; DC50 [7]: 3 nM; bioavailability [8]: 11.2%; Activity [9]: 21.8%; Activity [10]: 98.1%; Activity (CWR22R [11]): Active; Activity [12]: Active; Activity [13]: Active; Activity [14]: inactive; Activity (CWR22R [15]): 50.3%; Activity (22Rv1): inactive; IC50 (LNCaP): 2.8 nM; Activity [16]: inactive; Activity [17]: Time-dependent-effect; Emax [18]: 82.5%; Activity [19]: inactive; Activity [20]: 75.2%; Activity [21]: inactive; Activity [22]: inactive; Activity (CWR22R [23]): 55.6%; Activity [24]: 56.6%; AUC [25]: 1040 ng·h/mL; Activity [26]: 21.8%; Activity [27]: inactive; Activity [28]: inactive; Activity [29]: inactive; Activity [30]: Active
